From patent US11304417B2, “Method of protecting determinate soybean from damage by a plant pathogen” (SUMITOMO CHEMICAL COMPANY, LIMITED, priority 2019, dated 2022) come the findings set out here.

Common to all, as to type: in vivo
Assay [1] concerns Asian soybean rust (Phakopsora pachyrhizi). Kind of assay: Seed dipping with mefentrifluconazole, Asian soybean rust inoculation, fresh weight of aerial part (Example 4 / Comparative Example 4). The conditions noted are these: 200 g per hectare; for Treatment/control ratio (100 × A/B): seed dipping 0.2 mg per seed, 7 days from inoculation; for Protection from the damage by the pathogen: seed dipping. As for the experimental part: Seeds of two varieties of determinate soybean were separately dipped in a mefentrifluconazole dilution liquid (prepared by diluting an aqueous suspension concentrate of mefentrifluconazole with water) so that the amount of mefentrifluconazole to be applied to each seed might be 0.2 mg. Then, the determinate soybean seeds were sown to a pot filled with a soil at a sowing rate of 1,000,000 seeds per hectare. That is, the application rate of mefentrifluconazole was 200 g per hectare. Each determinate soybean was incubated in a greenhouse for 11 days from the sowing, and then a pathogen of Asian soybean rust (Phakopsora pachyrhizi) was inoculated to the foliage of each determinate soybean. Each determinate soybean was incubated in a greenhouse for 7 days from the inoculation, and then fresh weight of the aerial part of each determinate soybean was measured. The fresh weight is referred to as ‘the fresh weight in treatment plot’. As a control experiment, the same procedure was repeated except that dipping treatment with mefentrifluconazole dilution liquid and the inoculation of the pathogen were not conducted. The fresh weight obtained in the control experiment is referred to as ‘the fresh weight in control plot’. The same procedure of the example 4 was repeated except for replacing two varieties of determinate soybean with two varieties of indeterminate soybean.

Assay [2] has the same test system. The experiment in a line: Dripping mefentrifluconazole onto apical bud, Asian soybean rust inoculation, fresh weight of aerial part (Example 5 / Comparative Example 5). The conditions noted are these: 500 g per hectare; for Treatment/control ratio (100 × A/B): dripped onto apical bud 0.5 mg per plant, 7 days from inoculation. As for the experimental part:
Two varieties of determinate soybean were sown to a pot filled with a soil at a sowing rate of 1,000,000 seeds per hectare. Then each determinate soybean was incubated for […] in a greenhouse. A mefentrifluconazole dilution liquid (prepared by diluting an aqueous suspension concentrate of mefentrifluconazole with water) is dripped onto the apical bud of determinate soybean plants so that the amount of mefentrifluconazole to be applied to each plant might be 0.5 mg. That is, the application rate of mefentrifluconazole was 500 g per hectare. Three days after the application, a pathogen of Asian soybean rust (Phakopsora pachyrhizi) was inoculated to the foliage of each determinate soybean. Each determinate soybean was incubated in a greenhouse for 7 days from the inoculation, and then fresh weight of the aerial part of each determinate soybean was measured. The fresh weight is referred to as ‘the fresh weight in treatment plot’.
As a control experiment, the same procedure was repeated except that dripping treatment with mefentrifluconazole dilution liquid and the inoculation of the pathogen were not conducted. The fresh weight obtained in the control experiment is referred to as ‘the fresh weight in control plot’.
The same procedure of the example 5 was repeated except for replacing two varieties of determinate soybean with two varieties of indeterminate soybean.

Assay [3] shares this test system. Kind of assay: Foliar spray of mefentrifluconazole, Asian soybean rust inoculation, fresh weight of aerial part (Example 1 / Comparative Example 1). Particulars: foliar spray 500 g per hectare, 14 days from inoculation. As for the experimental part: Determinate soybean is sown to a pot filled with a soil. It is incubated for 7 days in a greenhouse. Mefentrifluconazole spray liquid (prepared by diluting an aqueous suspension concentrate of mefentrifluconazole with water) is uniformly sprayed onto the foliage of determinate soybean at the amount of 200 L per hectare so that the application rate of mefentrifluconazole may be 500 g per hectare. On the next day of the spraying, a pathogen of Asian soybean rust (Phakopsora pachyrhizi) is inoculated to the foliage of determinate soybean. The determinate soybean is incubated in a greenhouse for 14 days from the inoculation, and then fresh weight of the aerial part of the determinate soybean is measured. It is confirmed that the fresh weight is equivalent to that of the control where determinate soybean is not treated with mefentrifluconazole and the pathogen is not inoculated (no-treatment-no-inoculation control) and is bigger than that of the control where determinate soybean is not treated with mefentrifluconazole and the pathogen is inoculated (no-treatment-inoculation control). The same procedure of the example 1 is repeated except for replacing determinate soybean with indeterminate soybean or semi-determinate soybean. It is confirmed that the fresh weight of indeterminate soybean or semi-determinate soybean is smaller than that of the corresponding no-treatment-no-inoculation control and is equivalent to that of the corresponding no-treatment-inoculation control.

Assay [4] has the same test system. The experiment in a line: Seed coating with mefentrifluconazole, Asian soybean rust inoculation, fresh weight of aerial part (Example 2 / Comparative Example 2). The conditions noted are these: seed coating 0.2 mg per seed, 20 g per hectare, 14 days from inoculation. As for the experimental part:
Seeds of determinate soybean are coated with a mefentrifluconazole aqueous suspension concentrate so that the amount of mefentrifluconazole to be applied to each seed may be 0.2 mg. Then, the determinate soybean seeds are sown to a pot filled with a soil at a sowing rate of 100,000 seeds per hectare. That is, the application rate of mefentrifluconazole is 20 g per hectare. Then, the determinate soybean is incubated in a greenhouse for 10 days, followed by inoculating a pathogen of Asian soybean rust (Phakopsora pachyrhizi) to the foliage of determinate soybean. The determinate soybean is incubated in a greenhouse for 14 days from the inoculation, and then the fresh weight of the aerial part of the determinate soybean is measured. It is confirmed that the fresh weight is equivalent to that of the control where determinate soybean is not treated with mefentrifluconazole and the pathogen is not inoculated (no-treatment-no-inoculation control) and is bigger than that of the control where determinate soybean is not treated with mefentrifluconazole and the pathogen is inoculated (no-treatment-inoculation control). The same procedure of the example 2 is repeated except for replacing determinate soybean with indeterminate soybean or semi-determinate soybean. It is confirmed that the fresh weight of indeterminate soybean or semi-determinate soybean is smaller than that of the corresponding no-treatment-no-inoculation control and is equivalent to that of the corresponding no-treatment-inoculation control.

Assay [5] shares this test system. The experiment in a line: Dripping mefentrifluconazole onto primary leaf, Asian soybean rust inoculation, fresh weight of aerial part (Example 3 / Comparative Example 3). The conditions noted are these: dripped onto primary leaf 0.2 mg per plant, 200 g per hectare, 14 days from inoculation. How it is done:
Determinate soybean is sown to a pot filled with a soil at a sowing rate of 1,000,000 seeds per hectare. The determinate soybean is incubated for 10 days in a greenhouse, and then mefentrifluconazole dilution liquid (prepared by diluting an aqueous suspension concentrate of mefentrifluconazole with water) is dripped onto the primary leaf of determinate soybean so that the amount of mefentrifluconazole to be applied to each plant may be 0.2 mg. That is, the application rate of mefentrifluconazole is 200 g per hectare. On the next day of the application, a pathogen of Asian soybean rust (Phakopsora pachyrhizi) is inoculated to the foliage of determinate soybean. The determinate soybean is incubated in a greenhouse for 14 days from the inoculation, and then fresh weight of the aerial part of the determinate soybean is measured. It is confirmed that the fresh weight is equivalent to that of the control where determinate soybean is not treated with mefentrifluconazole and the pathogen is not inoculated (no-treatment-no-inoculation control) and is bigger than that of the control where determinate soybean is not treated with mefentrifluconazole and the pathogen is inoculated (no-treatment-inoculation control).
The same procedure of the example 3 is repeated except for replacing determinate soybean with indeterminate soybean or semi-determinate soybean. It is confirmed that the fresh weight of indeterminate soybean or semi-determinate soybean is smaller than that of the corresponding no-treatment-no-inoculation control and is equivalent to that of the corresponding no-treatment-inoculation control.

The mark [6] stands for this setting: Kurosengoku, indeterminate soybean.
Setting [7] is: Toyomusume, determinate soybean.
Where [8] appears, read: indeterminate or semi-determinate soybean.

For the compound `CC(O)(Cn1cncn1)c1ccc(Oc2ccc(Cl)cc2)cc1C(F)(F)F` (centres unmarked) [mefentrifluconazole], the “Treatment/control ratio (100 × A/B)” value in assay [1] (Harosoy, indeterminate soybean) came to 55; in assay [1] (setting [6]) it was 68; in assay [1] (Tambaguro, determinate soybean), 104; in assay [1] (setting [7]), 105; in assay [2] (setting [6]), 49; in assay [2] (Tambaguro, determinate soybean) it was 82. The “Treatment/control ratio (100 × A/B)” value was 85 in assay [2] (setting [7]) and 39 in assay [2] (Williams 82, indeterminate soybean). Besides, the “Protection from the damage by the pathogen” value is “successfully protected” in assay [1] (determinate soybean (Table 1)); “not successfully protected” in assay [1] (indeterminate soybean (Table 2)); “protected much more effectively compared with indeterminate soybeans” in assay [2] (determinate versus indeterminate soybeans (Tables 3 and 4), dripped onto apical bud). In addition, the “Fresh weight of aerial part compared with no-treatment-inoculation control” value is reported as “bigger” in assay [3] (determinate soybean); “equivalent” in assay [3] (setting [8]); “bigger” in assay [4] (determinate soybean); “equivalent” in assay [4] (setting [8]); “bigger” in assay [5] (determinate soybean); “equivalent” in assay [5] (setting [8]). Besides, the “Fresh weight of aerial part compared with no-treatment-no-inoculation control” value in assay [3] (determinate soybean) is reported as “equivalent”; in assay [3] (setting [8]) it was “smaller”; in assay [4] (determinate soybean) it was “equivalent”; in assay [4] (setting [8]) it was “smaller”; in assay [5] (determinate soybean), “equivalent”; in assay [5] (setting [8]), “smaller”.
